In one test the test system is serum IL-4. Description: Mouse eczema model: serum IL-4 (ELISA). As to conditions: after modeling, 0.1% cream for external use twice a day, 10 days (positive: aloxone). The format is in vivo, C57BL/6 mice. The text has this:
SPF grade female C57BL/6 mice were purchased at the age of 8 weeks (0.02 kg), 6 in each group, and randomly divided into the blank control group, model group, positive drug group, CLY-1 treatment group (0.1% CLY-1 cream for external use), CLY-2 treatment group (0.1% CLY-2 cream for external use), CLY-3 treatment group (0.1% CLY-3 cream for external use), CLY-4 treatment group (0.1% CLY-4 cream for external use), CLY-8 treatment group (0.1% CLY-8 cream for external use), CLY-11 treatment group (0.1% CLY-11 cream for external use) CLY-19 treatment group (0.1% CLY-19 cream for external use), CLY-36 treatment group (0.1% CLY-36 cream for external use) and CLY-39 treatment group (0.1% CLY-39 cream for external use).
Model establishment: the normal control group mice were smeared with 75% ethanol 14.3 ul on both ears, while the model group, positive drug group and treatment group were smeared with 1 nmol/L carpotriol liniment 14.3 ul on both ears at a regular time every day, and then smeared with 20 g/L OVA 25 ul after air drying, once a day, for 12 days to make a model.
From 4 days after the start of modeling, applied the cream matrix on the ear skin of mice in the blank control group and the model group, applied aloxone on the ear skin of mice in the positive drug group, and applied the treatment cream on the ear skin of mice in each treatment group respectively, twice a day in the morning and evening, for 10 consecutive days, took photos every day, and recorded scores.
The thickness of mouse auricle was measured and recorded with ear thickness measuring instrument before and on the 14th day respectively. After the measurement on the 14th day, the mice were sacrificed. Blood was taken and serum was separated.
The enzyme-labeled plate was coated with rabbit anti-mouse interleukin (IL)-4 antibody, stayed at 4° C. overnight, and the reaction was stopped according to the instructions of the ELISA kit to detect the level of serum IL-4. ELISA kits were all purchased from Raybiotech, USA.
Background: In an ELISA, binding on a coated surface is turned into a signal by an enzyme label.

Test [1] deals with chloasma model of guinea pig. Description: Chloasma model of guinea pig: tyrosine, MDA content and SOD activity of skin tissue. In kind it is in vivo. As to conditions: 0.25% cream on the skin once a day, 30 days. From the text: 1.1.4 Preparation method of treatment cream: The excipient matrix components include methyl silicone oil (15%), stearic acid (6%), white vaseline (5%), liquid paraffin (5%), octadecanol (5%), glycerin (20%), alkyl aryl polyglycol ether (1%), fatty alcohol polyoxyethylene ether (1%), […] (1%), ethyl paraben (0.1%), distilled water (about 31-55%), and are mixed with appropriate amount of CLY series compounds to form 0.25% mixed emulsion. The cream matrix used in this embodiment refers to the matrix components after the active ingredients are removed from the cream.
According to the body weight, they were randomly divided into the model control group (applied cream matrix), blank control group (applied cream matrix), CLY-1 treatment group (applied 0.25% CLY-1 cream on the skin), CLY-2 treatment group (0.25% CLY-2 cream on the skin), CLY-3 treatment group (0.25% CLY-3 cream on the skin), CLY-4 treatment group (0.25% CLY-4 cream on the skin), CLY-5 treatment group (0.25% CLY-5 cream on the skin) CLY-8 treatment group (0.25% CLY-8 cream on the skin), CLY-11 treatment group (0.25% CLY-11 cream on the skin), CLY-19 treatment group (0.25% CLY-19 cream on the skin), CLY-36 treatment group (0.25% CLY-36 cream on the skin), CLY-39 treatment group (0.25% CLY-39 cream on the skin), positive treatment group (0.25% arbutin cream on the skin), 6 in each group. In addition to the blank control group, all guinea pigs in the other groups were injected with 20 mg/ml progesterone injection (7.5 mg/kg) into the muscle at the root of the hind leg, once a day, for 30 consecutive days to establish the chloasma model. […] After modeling, the guinea pigs in the model control group, blank control group, each CLY series treatment group, and positive treatment group were treated with corresponding cream on the back for intervention, once a day, for 30 consecutive days.
Took one piece of skin tissue from each guinea pig, separately. Washed it with precooled normal saline, removed subcutaneous fat and other connective tissue, and then wiped it dry. Each piece of skin tissue was cut to 0.5 g. Then put it into five small tubes containing 2.0 ml of precooled normal saline. The high-speed dispersion machine homogenizes at a speed of […], lasted for 10 seconds, repeated once, centrifuged at a speed of 3500 r/m for 15 minutes, and took the supernatant. Tyrosine was determined by HPLC, MDA was determined by the thiobarbituric acid method, SOD was determined by the xanthine oxidase method, and tyrosine, MDA content, and SOD activity were determined according to the instructions of the kit.
SPSS16.0 software was used for statistics. The measurement data were expressed by mean±standard deviation (x±s). The comparison between multiple groups was performed by one-way ANOVA, and the comparison between groups was performed by t-test. P<0.05 was statistically significant.

These results are taken from US20240300945A1, “CLY SERIES COMPOUND, PREPARATION METHOD THEREFOR AND USE THEREOF IN PREPARATION OF DRUGS” (NANJING WELLBEST PHARMACEUTICAL CO., LTD, priority 2021, published 2024).

Structures are written as SMILES.

`O=C(c1ccc(-c2ccccc2Cl)cc1)N(c1ncccc1Cl)[C@@H]1CCCNC1` [CLY-36]: the “IL-4 level in peripheral blood” value in the test on serum IL-4 stood at 5.86 pg/mL. In test [1], this molecule came in with an MDA of 11.83 ± 1.27 nmol/mL, an SOD of 93.42 ± 9.03 NU/ml and a tyrosine of 0.58 ± 0.08 µg.
On the same counts, the results for `CNC1CCCC(N(C(=O)c2ccc(-n3nnc4cccnc43)cc2)c2ncccc2Cl)C1` (stereo not drawn) [CLY-3] are 7.32 pg/mL, 11.57 ± 1.18 nmol/mL, 97.45 ± 9.23 NU/ml and 0.51 ± 0.07 µg.
On the same counts, the results for `Nc1ccccc1-c1ccc(C(=O)N(c2ncccc2Cl)[C@@H]2CCCNC2)cc1` [CLY-39] are 5.75 pg/mL, 10.81 ± 1.23 nmol/mL, 103.16 ± 9.65 NU/ml and 0.46 ± 0.05 µg.
For `O=C(c1ccc(-n2nnc3cccnc32)cc1)N(c1ncccc1Cl)[C@@H]1CCNC1` [CLY-8, (R)-4-(3H-[1,2,3]triazolo[4,5-b]pyridin-3-yl)-N-(3-chloropyridin-2-yl)-N-(pyrrolidin-3-yl)benzamide], in that order: 5.53 pg/mL, 10.59 ± 1.12 nmol/mL, 105.68 ± 9.75 NU/ml and 0.43 ± 0.03 µg.
On to `COC1CCCC(N(C(=O)c2ccc(-n3nnc4cccnc43)cc2)c2ncccc2Cl)C1` (stereo not drawn) [CLY-5], for which, in test [1], the MDA came out at 10.65 ± 1.14 nmol/mL, the SOD was 105.89 ± 9.86 NU/ml and the tyrosine amounted to 0.43 ± 0.05 µg.
For `CN1CCC[C@@H](N(C(=O)c2ccc(-n3nnc4cccnc43)cc2)c2ncccc2Cl)C1` [CLY-1, (R)-4-(3H-[1,2,3]triazolo[4,5-b]pyridin-3-yl)-N-(3-chloropyridin-2-yl)-N-(1-methylpiperidin-3-yl)benzamide], the “IL-4 level in peripheral blood” value with serum IL-4 came out at 6.76 pg/mL. In test [1], this molecule came in with an MDA of 11.32 ± 1.15 nmol/mL, an SOD of 103.65 ± 9.63 NU/ml and a tyrosine of 0.45 ± 0.07 µg.
For `CCN1CCC[C@@H](N(C(=O)c2ccc(-n3nnc4cccnc43)cc2)c2ncccc2Cl)C1` [CLY-2, (R)-4-(3H-[1,2,3]triazolo[4,5-b]pyridin-3-yl)-N-(3-chloropyridin-2-yl)-N-(1-ethylpiperidin-3-yl)benzamide], in that order: 5.58 pg/mL, 10.86 ± 1.19 nmol/mL, 105.23 ± 9.82 NU/ml and 0.43 ± 0.06 µg.
On the same counts, the results for `NC1CCCC(N(C(=O)c2ccc(-n3nnc4cccnc43)cc2)c2ncccc2Cl)C1` (stereo not drawn) [CLY-11] are 6.45 pg/mL, 11.62 ± 1.21 nmol/mL, 95.13 ± 9.16 NU/ml and 0.54 ± 0.06 µg.
As for `O=C(c1ccc(-n2nnc3cccnc32)cc1)N(c1ncccc1Cl)C1CCCC(O)C1` (stereo not drawn) [CLY-4], in the test on serum IL-4, the “IL-4 level in peripheral blood” value was 7.51 pg/mL. For the same molecule, in test [1], the MDA was 11.62 ± 1.15 nmol/mL, the SOD came to 95.12 ± 8.65 NU/ml and the tyrosine amounted to 0.53 ± 0.06 µg.
With `O=C(c1ccc(-c2ccccc2-c2nnn[nH]2)cc1)N(c1ncccc1Cl)[C@@H]1CCCNC1` [CLY-19], the “IL-4 level in peripheral blood” value in the test with serum IL-4 was 5.72 pg/mL. Also, in test [1], the MDA is 11.75 ± 1.26 nmol/mL, the SOD is reported as 96.53 ± 9.21 NU/ml and the tyrosine is 0.56 ± 0.07 µg.
